Data as given in patent publication US9556113B2, “Combination uses of dichloroacetate and oxamate, and their prodrugs, for cancer treatment” (The South Dakota Board of Regents, priority 2014, dated 2017).
Structures can show the parent of a compound that is named as a salt.

Key:
E6E7/Ras MTE cells = assay: Clonogenic growth (colony formation); format: cell-based, mouse; conditions: 5 mM prodrugs, 10 mM DCA, 7 days, vs DMSO
Experimental: FIG. 4 illustrates prodrugs AT-N4-001 and AT-N4-002 inhibiting cell proliferation and colony growth of E6E7/Ras MTE cells. (A) E6E7/Ras MTE cultures were treated with DMSO (Con), AT-N4-001, or AT-N4-[…] 002 at the indicated concentration for one day. Live cell number was then determined using a trypan blue exclusion assay. (B) E6E7/Ras MTE cells were seeded on 100-mm plate at 500 cells per plate (in triplicate). After one day, cells were treated as indicated and allowed to grow until colonies of untreated controls reached 50 or more cells (7 days). Plates were stained with Coomassie blue to visualize the colonies. (C) Quantification of colonies described in B. Colonies with more than 15 cells were counted.
E6E7/Ras MTE cells are mouse tonsilar epithelial cells that have been transformed by HPV oncogenes E6 and E7 together with activated ras. They form tumors in mice and are a model of human HPV+HNSCC. These cells were treated in culture with either vehicle control (DMSO), AT-N4-001, or AT-N4-002 at concentrations of 1 mM, 2.5 mM and 5 mM for one day. Live cells were counted using a hemocytometer (FIG. 4A). […] The effects of the compounds on clonogenic growth of the cells were also tested. E6/E7/Ras MTE cells were seeded in 100 mm plates in triplicate, and the next day cells were treated with either vehicle control DMSO, 5 mM AT-N4-001, 5 mM AT-N4-002, or 10 mM DCA. DCA was used at a twice the concentration because the prodrugs each carry two molecules of DCA.

E6E7/Ras cells = assay: Lactate secretion into culture medium, enzyme based assay; format: cell-based, mouse; conditions: 5 mM each, 4 hours
Experimental: FIG. 5 illustrates the reduction of lactate secretion in cultured cells by prodrugs AT-N4-001 and AT-N4-002. E6E7Ras cells were plated in 100 mm dishes and grown to confluence. The medium was changed to bicarbonate-free DMEM-10% FBS with or without the indicated treatments (5 mM each). Four hours later the medium was collected and lactate was measured using an enzyme based assay from Eton Bioscience. Con indicates the control samples for the DCA and Oxamate samples. DMSO indicates the vehicle only control for the AT-N4-001 and AT-N4-002 prodrug samples.
AT-N4-001 and AT-N4-002 should each release two molecules of DCA and one molecule of oxamate. Both DCA and oxamate are expected to reduce cellular lactate production. Therefore, we examined the changes in lactate after treatment of E6E7/Ras cells with the prodrugs. E6E7/Ras cells were seeded into 100 mm dishes and the next day treated with 5 mM AT-N4-001, 5 mM AT-N4-002, 5 mM DCA plus 5 mM oxamate, or 5 mM DCA alone. Culture medium was collected after 4 hours of treatment and lactate levels were determined (FIG. 5). […] To confirm the effects of these compounds on lactate production, the extra cellular acidification rate (ECAR) was measured using a Seahorse XF24 Extracellular Flux analyzer. Since lactate is transported from cells together with a proton, acidification of the culture medium (ECAR) is an estimate of lactate production and the glycolytic rate of cells. In the experiment shown in FIG. 6A, ECAR measurements were initiated in the absence of glucose. At point A, glucose was added and ECAR measurements continued. […] At point B, additional glucose along with vehicle (control), DCA plus oxamate, or AT-N4-002 was added. […] This is shown by a bar graph in FIG. 6B.

[1] = clinical use, reference (24); cited from earlier work
[2] = tested on: HPV+E6E7 Ras tumor (E6/E7/Ras MOEs cells); assay: Tumor response to cisplatin/radiation therapy (CRT), HPV positive HNSCC mouse model; format: in vivo, C57Bl/6 mice; conditions: oxamate 15 mg/mouse; for tumor's response to CRT (tumor volume, FIG. 18): DCA 6 mg/mouse, daily i.p. on weekdays from day 11, with CRT
Experimental: FIG. 7 illustrates the effects of DCA plus oxamate on tumor growth (A) or on survival (B) with HPV+ model of HNSCC in wild-type C57Bl/6 mice. All mice received 3 rounds of cisplatin (0.132 mg/mouse) plus radiation (8 Gy/mouse) treatment (Tx) at weekly intervals starting […] after tumor initiation. Mice receiving DCA (6 mg/mouse) plus oxamate (15 mg/mouse) were treated every weekday, starting with the first chemoradiation treatment by i.p. injection.
FIG. 8 illustrates a comparison of prodrugs to DCA plus oxamate on tumor growth (A) or on survival (B) with HPV+ model of HNSCC in wild-type C57Bl/6 mice. All mice received 3 rounds of CRT [cisplatin (0.132 mg/mouse) plus radiation (8 Gy/mouse) treatment (Tx) at weekly intervals starting 11 days after tumor initiation]. Mice receiving DCA (6 mg/mouse) plus oxamate (2.2 mg/mouse) were treated every weekday starting with the first chemoradiation treatment by i.p. injection. Mice treated with AT-N4-001 or AT-N4-002 prodrugs (7.6 mg/mouse) were treated on the same schedule as mice treated with DCA+oxamate.
FIG. 18. The effects of DCA, oxamate, DCA plus oxamate on the responses of HPV+E6E7 Ras tumor to CRT. One million E6/E7/Ras MOEs cells were injected subcutaneously into the rear leg of wild-type C57Bl/6 mice. After 11 days, a treatment with DCA (6 mg/mouse) and oxamate (15 mg/mouse) were injected daily by i.p. on weekdays for the remainder of the experiment. All mice received three rounds of treatment with CRT (0.132 mg/mouse cisplatin and 8 Gy radiation, weekly starting at day 11). Tumor volume is mm^3.
FIG. 19 depicts the effects of DCA plus oxamate vs the effects of prodrug 1 or prodrug 2 on the responses of HPV+E6E7 Ras tumor to CRT. Tumors were initiated by injecting 0.5×10^6 E6/E7/Ras MOEs cells. After 11 days, a treatment with DCA (6 mg/mouse) plus oxamate (2 mg/mouse), or prodrug 1 (7.6 mg/mouse), or prodrug 2 (7.6 mg/mouse) was initiated daily by i.p. on weekdays. The doses of DCA and oxamate were equal molar equivalents as would be released from the prodrugs. All mice received three rounds of treatment with CRT (0.132 mg/mouse cisplatin and 8 Gy radiation, weekly starting at day 11). Tumor volume is in mm^3.
The effects of various treatments on tumor responses were carried out by examining whether the treatment could improve tumor's response to CRT with a HPV positive HNSCCs mouse model. CRT is a standard treatment for HPV-positive HNSCC in the clinic (46). […] Applicants also used this model to investigate the effects of lactate on CRT-induced immune-mediated cancer clearance (46) and DCA's effect on the tumor's response to CRT (unpublished data). The literature reported dosages of DCA and oxamate were used (6,23,52,53)(41).
To study the effects of the prodrugs on tumor growth in vivo, C57Bl/6 immune-competent mice implanted with E6/E7/Ras MOEs cells were used as described previously (46). All experiments were performed in accordance with institutional and national guidelines and regulations with the protocol approved by the Animal Care and Use Committee at Sanford Research. Briefly, 1×10^6 tumor HPV+HNSCC cells were injected into the right subcutaneous flank of syngeneic male C57Bl/6 mice. Eleven days after tumor initiation, treatment was initiated daily on weekdays by i.p. injection of vehicle, DCA, Oxamate, DCA+oxamate, prodrug 1, or prodrug 2. All mice received three rounds of treatment with cisplatin/radiation therapy (CRT: 0.132 mg/mouse cisplatin and 8 Gy radiation, weekly starting at day 11). Tumor dimensions were measured weekly to monitor growth. Mice with tumors reaching a volume of 3000 mm^3 or becoming substantially emaciated were euthanized.
To study the effects of the new prodrugs on tumor growth in vivo, C57Bl/6 immune-competent mice were used. Tumors were established on the right flank of the leg. After 11 days, treatment was initiated with daily i.p. injection of vehicle, AT-N4-001, or AT-N4-002. […]

PDK = conditions: reported (26); read-out: Ki value of DCA for PDK; cited from earlier work
mammalian LDH = conditions: reference (47); read-out: Ki value of oxamate for mammalian LDH; cited from earlier work
[3] = reference (44); cited from earlier work
[4] = tested on: nasopharyngeal carcinoma cells / normal nasopharyngeal epithelial cells; conditions: reference (44); cited from earlier work

| SMILES | colony size (FIG. 4B) (E6E7/Ras MTE cells) | lactate production (culture medium, FIG. 5) (E6E7/Ras cells) | clinical safety and tolerability [1] | tumor's response to CRT (tumor volume, FIG. 18) [2] | effectiveness of DCA versus oxamate in improving response to CRT ([2]; FIG. 18, DCA 6 mg/mouse, with CRT) | Ki (PDK) [µM] | Ki (mammalian LDH) [µM] | tolerability in mice [3] | nasopharyngeal carcinoma cell proliferation in vitro and in vivo [4] | toxicity to normal nasopharyngeal epithelial cells in vitro [4] |
| --- | --- | --- | --- | --- | --- | --- | --- | --- | --- | --- |
| O=C([O-])C(Cl)Cl.[Na+] [DCA, dichloroacetic acid sodium salt, reference compound] | approximately equal reductions in colony size | reduces lactate production but to a lesser extent than the prodrugs | safe and well tolerated with relatively modest toxicities | improved tumor's response to CRT | more effective than oxamate | 10 to 250 |  |  |  |  |
| NC(=O)C(=O)O [oxamate, oxamic acid sodium salt] |  |  |  | improved tumor's response to CRT |  |  | 116 | well tolerated | significant suppression | minimum toxicity |
